Data reported in US6822064B1, “Polymerizable macromers and preparation thereof” (Council of Scientific and Industrial Research, priority 2003, dated 2004).

Target: lysozyme (Gallus gallus, UniProt P00698)
Experiment: Estimation of relative inhibition of lysozyme (Micrococcus lysodeikticus substrate, absorbance at 450 nm)
Assay type: biochemical
Conditions: for ligand concentration at maximum inhibition: ligand concentration at which the maximum inhibition is achieved; for Imax: maximum relative inhibition of lysozyme
Excerpt: This example describes the estimation of inhibition of lysozyme by monomers, oligomers and macromer. I50 denotes the concentration of the ligand containing NAG at which 50% of the highest achievable inhibition is achieved. Imax denotes the ligand concentration at which the maximum inhibition is achieved.
Micrococcus lysodeikticus is a substrate for the enzyme lysozyme. Relative binding of macromers was estimated by using a procedure reported by Neuberger and Wilson (1967).
1.5% w/v stock solutions of macromer was prepared in 0.0066 M phosphate buffer pH 6.2 containing 0.0154 m sodium chloride and 0.008 M sodium azide. One milliliter of stock solution containing different ligand concentration was mixed with 1.6 ml of 78 μg/ml of Micrococcus lysodeikticus in a 3-ml capacity glass cuvette. The mixture was incubated for 5 minutes at 20° C. To this mixture 0.1 ml of lysozyme (27 μg/ml) was added and mixed thoroughly. The relative absorbance at 450 nm (Δ450) was recorded for 30 seconds. A blank reading without the ligand was noted and the change in the absorbance per second was calculated. Then relative inhibition was calculated.

lysozyme, sequence (P00698 19-147): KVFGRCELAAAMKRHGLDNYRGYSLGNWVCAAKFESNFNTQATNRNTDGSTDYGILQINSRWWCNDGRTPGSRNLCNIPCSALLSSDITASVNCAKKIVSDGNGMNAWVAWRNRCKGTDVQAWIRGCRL

C=CC(=O)OC[C@H]1OC(O)[C@H](NC(C)=O)[C@@H](O)[C@@H]1O (some centres unmarked) [Ac. NAG, Acryloyl N-Acetyl Glucosamine]
IC50 (ligand concentration at which 50% of the highest achievable inhibition is achieved, pH 6.2, 20° C., read-out: I50): 14.8 mM | ligand concentration at maximum inhibition: 14.81 mM | Imax: 50.00

CC(=O)N[C@H]1C(O)O[C@H](CO)[C@@H](O)[C@@H]1O (some centres unmarked) [NAG, N-Acetyl Glucosamine, reference compound]
ligand concentration at maximum inhibition: 92.50 mM | Imax: 55.29
